Results published in ChEMBL document CHEMBL4152385, “Synthesis, Receptor Affinity, and Antiallodynic Activity of Spirocyclic σ Receptor Ligands with Exocyclic Amino Moiety” (J Med Chem, 2018).
Active and inactive are the calls of the source. The calls are words filed in the database; no cut-off is given here.

Assays:
[1] = target: Sodium-dependent serotonin transporter (Homo sapiens) (UniProt P31645); experiment: Inhibition of SERT (unknown origin) at 1 uM relative to control
Mus musculus [2] = experiment: Antiallodynic activity in CD1 mouse model of capsaicin-induced mechanical allodynia assessed as effect on paw withdrawal latency time at 2 to 64 mg/kg, sc administered 30 mins before capsaicin addition and measured at 30 secs intervals; type: functional, organism-based
[3] = target: 5-hydroxytryptamine receptor 2B (Homo sapiens) (UniProt P41595); experiment: Inhibition of 5-HT2B receptor (unknown origin) at 1 uM relative to control
[4] = Displacement of [3H]-(+)-MK-801 from NMDA PCP binding site in pig brain cortex membrane incubated for 120 mins by scintillation counting method; type: cell membranes, Sus scrofa
[5] = target: T1, Alpha-1A adrenergic receptor (Homo sapiens) (UniProt P35348); experiment: Inhibition of alpha-1A adrenergic receptor (unknown origin) at 1 uM relative to control
T1 sequence (whole entry): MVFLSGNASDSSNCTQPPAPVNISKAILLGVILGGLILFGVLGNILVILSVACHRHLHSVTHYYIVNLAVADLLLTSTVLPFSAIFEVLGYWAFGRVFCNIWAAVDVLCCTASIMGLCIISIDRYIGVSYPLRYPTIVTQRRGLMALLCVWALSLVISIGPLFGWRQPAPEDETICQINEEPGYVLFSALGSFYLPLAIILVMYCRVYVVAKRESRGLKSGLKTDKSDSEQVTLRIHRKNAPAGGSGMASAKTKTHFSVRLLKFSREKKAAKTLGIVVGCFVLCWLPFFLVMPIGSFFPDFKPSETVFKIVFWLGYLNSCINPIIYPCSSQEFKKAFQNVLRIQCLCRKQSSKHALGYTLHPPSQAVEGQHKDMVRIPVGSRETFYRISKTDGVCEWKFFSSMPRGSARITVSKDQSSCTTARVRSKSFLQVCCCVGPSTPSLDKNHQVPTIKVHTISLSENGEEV

Mus musculus [6] = experiment: Antiallodynic activity in CD1 mouse model of capsaicin-induced mechanical allodynia assessed as effect on paw withdrawal latency time at 8 to 16 mg/kg, sc administered 5 mins after sigma1 receptor agonist PRE-084 dosing followed by capsaicin addition and measured after 30 mins post compound dose; type: functional, organism-based
[7] = target: T2, 5-hydroxytryptamine receptor 1A (Homo sapiens) (UniProt P08908); experiment: Inhibition of 5-HT1A receptor (unknown origin) at 1 uM relative to control
T2 sequence (whole entry): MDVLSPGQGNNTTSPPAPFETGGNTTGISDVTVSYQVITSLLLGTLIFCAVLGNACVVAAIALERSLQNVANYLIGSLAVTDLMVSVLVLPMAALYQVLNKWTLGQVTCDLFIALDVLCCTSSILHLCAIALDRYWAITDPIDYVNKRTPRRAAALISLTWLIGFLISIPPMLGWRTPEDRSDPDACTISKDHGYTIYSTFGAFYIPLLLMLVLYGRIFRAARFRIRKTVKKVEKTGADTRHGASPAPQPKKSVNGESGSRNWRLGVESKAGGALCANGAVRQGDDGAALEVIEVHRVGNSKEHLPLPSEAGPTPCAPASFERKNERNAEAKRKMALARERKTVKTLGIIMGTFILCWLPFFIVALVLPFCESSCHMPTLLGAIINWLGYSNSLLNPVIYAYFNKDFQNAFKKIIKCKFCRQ

[8] = target: T3, Sigma intracellular receptor 2 (Rattus norvegicus, UniProt Q5U3Y7); experiment: Displacement of [3H]-di-o-tolylguanidine from sigma2 receptor in rat liver membranes incubated for 120 mins by scintillation counting method; type: cell membranes, Membrane
T3 sequence (Q5U3Y7 whole entry): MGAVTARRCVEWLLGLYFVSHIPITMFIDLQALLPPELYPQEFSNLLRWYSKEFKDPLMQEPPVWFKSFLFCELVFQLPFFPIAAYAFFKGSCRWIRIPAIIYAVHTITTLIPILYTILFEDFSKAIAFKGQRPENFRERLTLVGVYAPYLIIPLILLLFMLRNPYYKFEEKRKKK

[9] = target: Histamine H1 receptor (Homo sapiens) (UniProt P35367); experiment: Inhibition of histamine H1 receptor (unknown origin) at 1 uM relative to control
Mu-type opioid receptor [10] = target: Mu-type opioid receptor (Homo sapiens, UniProt P35372); experiment: Agonist activity at human MOR expressed in CHOK1 cells assessed as reduction in forskolin-induced intracellular cAMP increase after 45 mins by HTRF analysis; type: functional, cell-based
[11] = target: Sodium-dependent dopamine transporter (Homo sapiens) (UniProt Q01959); experiment: Inhibition of DAT (unknown origin) at 1 uM relative to control
in vitro = settings: mouse, liver microsomes
Description: Metabolic stability in mouse liver microsomes assessed as compound remaining at 25 uM after 1 hr in presence of NADPH by LC-MS analysis

[12] = target: Glutamate receptor ionotropic, NMDA 2B (Homo sapiens, UniProt Q13224); experiment: Displacement of [3H]ifenprodil from GluN2B (unknown origin) expressed in mouse L(tk-) cell membranes incubated for 120 mins by scintillation counting method
[13] = target: Sodium-dependent noradrenaline transporter (Homo sapiens) (UniProt P23975); experiment: Inhibition of NET (unknown origin) at 1 uM relative to control
Mus musculus [14] = experiment: Antiallodynic activity in CD1 mouse model of capsaicin-induced mechanical allodynia assessed as effect on paw withdrawal latency time at 32 mg/kg, sc administered 5 mins after sigma1 receptor agonist PRE-084 dosing followed by capsaicin addition and measured after 30 mins post compound dose; type: functional, organism-based
[15] = target: T4, Sigma non-opioid intracellular receptor 1 (Cavia porcellus, UniProt Q60492); experiment: Displacement of [3H]-(+)-pentazocine from sigma1 receptor in guinea pig brain cortex membranes incubated for 120 mins by scintillation counting method; type: cell membranes
[16] = Selectivity ratio of Ki for sigma2 receptor in rat liver membranes to Ki for sigma1 receptor in guinea pig brain cortex membranes; type: cell membranes
Mus musculus [17] = experiment: Antiallodynic activity in CD1 mouse model of capsaicin-induced mechanical allodynia assessed as effect on paw withdrawal latency time at 4 to 32 mg/kg, sc administered 5 mins after sigma1 receptor agonist PRE-084 dosing followed by capsaicin addition and measured after 30 mins post compound dose; type: functional, organism-based
Mu-type opioid receptor [18] = target: Mu-type opioid receptor (Cavia porcellus, UniProt P97266); experiment: Displacement of [3H]DAMGO from MOR in guinea pig brain membranes incubated for 120 mins by scintillation counting method; type: cell membranes, Membrane
[19] = target: Delta-type opioid receptor (Rattus norvegicus, UniProt P33533); experiment: Displacement of [3H]DPDPE from DOR in rat brain membranes incubated for 120 mins by scintillation counting method; type: cell membranes, Membrane
[20] = Stability in pH 7.4 phosphate buffer assessed as parent compound remaining after 24 hrs by HPLC; type: physicochemical; settings: pH 7.4, 24 h
Mus musculus [21] = experiment: Antiallodynic activity in CD1 mouse model of capsaicin-induced mechanical allodynia assessed as effect on paw withdrawal latency time at 4 to 64 mg/kg, sc administered 30 mins before capsaicin addition and measured at 30 secs intervals; type: functional, organism-based
[22] = Stability in pH 2 aqueous HCl solution assessed as parent compound remaining after 24 hrs by HPLC; type: physicochemical; settings: buffer, pH 2, 24 h
[23] = target: T4, Sigma non-opioid intracellular receptor 1

T4 sequence (Q60492 whole entry): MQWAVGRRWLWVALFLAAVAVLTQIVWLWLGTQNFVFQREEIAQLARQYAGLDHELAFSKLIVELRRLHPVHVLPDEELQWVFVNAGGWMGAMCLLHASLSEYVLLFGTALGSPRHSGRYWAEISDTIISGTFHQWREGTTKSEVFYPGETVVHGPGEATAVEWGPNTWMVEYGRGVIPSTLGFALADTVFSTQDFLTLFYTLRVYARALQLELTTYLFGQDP
Glutamate receptor ionotropic, NMDA 2B, sequence (Q13224 whole entry): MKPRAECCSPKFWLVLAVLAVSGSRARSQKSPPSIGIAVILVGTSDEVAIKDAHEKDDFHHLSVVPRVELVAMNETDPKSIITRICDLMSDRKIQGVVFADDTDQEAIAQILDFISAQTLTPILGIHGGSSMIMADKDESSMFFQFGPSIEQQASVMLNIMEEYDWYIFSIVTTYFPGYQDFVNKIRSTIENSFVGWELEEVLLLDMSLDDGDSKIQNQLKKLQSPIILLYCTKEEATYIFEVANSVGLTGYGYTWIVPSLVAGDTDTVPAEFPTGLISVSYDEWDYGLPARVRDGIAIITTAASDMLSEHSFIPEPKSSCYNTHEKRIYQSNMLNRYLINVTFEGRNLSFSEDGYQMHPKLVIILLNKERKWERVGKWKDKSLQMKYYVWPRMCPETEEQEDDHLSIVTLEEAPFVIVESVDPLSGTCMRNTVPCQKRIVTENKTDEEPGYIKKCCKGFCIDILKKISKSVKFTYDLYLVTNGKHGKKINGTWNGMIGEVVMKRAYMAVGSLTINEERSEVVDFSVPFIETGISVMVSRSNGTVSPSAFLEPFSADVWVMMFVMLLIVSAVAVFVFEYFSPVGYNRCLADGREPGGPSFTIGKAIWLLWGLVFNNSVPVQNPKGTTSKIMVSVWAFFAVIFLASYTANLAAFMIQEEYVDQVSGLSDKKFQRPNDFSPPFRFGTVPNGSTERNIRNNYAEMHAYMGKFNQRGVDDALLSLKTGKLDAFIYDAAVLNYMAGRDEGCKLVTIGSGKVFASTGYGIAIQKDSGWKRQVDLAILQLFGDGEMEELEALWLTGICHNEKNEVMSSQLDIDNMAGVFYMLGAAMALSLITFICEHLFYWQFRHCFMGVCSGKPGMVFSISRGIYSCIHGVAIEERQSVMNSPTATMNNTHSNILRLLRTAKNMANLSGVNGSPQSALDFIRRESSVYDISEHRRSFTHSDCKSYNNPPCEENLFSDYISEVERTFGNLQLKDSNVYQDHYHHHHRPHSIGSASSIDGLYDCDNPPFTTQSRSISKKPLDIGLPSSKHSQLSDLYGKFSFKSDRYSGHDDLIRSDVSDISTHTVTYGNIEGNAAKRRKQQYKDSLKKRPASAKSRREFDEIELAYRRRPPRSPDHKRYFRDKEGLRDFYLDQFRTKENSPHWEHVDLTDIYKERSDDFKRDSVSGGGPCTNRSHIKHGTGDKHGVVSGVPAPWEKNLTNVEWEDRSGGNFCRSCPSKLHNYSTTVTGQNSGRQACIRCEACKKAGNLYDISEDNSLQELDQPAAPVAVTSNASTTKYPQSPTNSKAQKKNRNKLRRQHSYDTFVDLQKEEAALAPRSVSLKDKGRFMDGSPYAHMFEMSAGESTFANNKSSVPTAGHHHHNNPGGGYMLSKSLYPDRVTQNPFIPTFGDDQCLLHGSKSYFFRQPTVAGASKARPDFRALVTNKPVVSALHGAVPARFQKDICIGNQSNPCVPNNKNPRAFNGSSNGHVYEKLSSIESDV
Sodium-dependent serotonin transporter (Homo sapiens), sequence (P31645 whole entry, looked up): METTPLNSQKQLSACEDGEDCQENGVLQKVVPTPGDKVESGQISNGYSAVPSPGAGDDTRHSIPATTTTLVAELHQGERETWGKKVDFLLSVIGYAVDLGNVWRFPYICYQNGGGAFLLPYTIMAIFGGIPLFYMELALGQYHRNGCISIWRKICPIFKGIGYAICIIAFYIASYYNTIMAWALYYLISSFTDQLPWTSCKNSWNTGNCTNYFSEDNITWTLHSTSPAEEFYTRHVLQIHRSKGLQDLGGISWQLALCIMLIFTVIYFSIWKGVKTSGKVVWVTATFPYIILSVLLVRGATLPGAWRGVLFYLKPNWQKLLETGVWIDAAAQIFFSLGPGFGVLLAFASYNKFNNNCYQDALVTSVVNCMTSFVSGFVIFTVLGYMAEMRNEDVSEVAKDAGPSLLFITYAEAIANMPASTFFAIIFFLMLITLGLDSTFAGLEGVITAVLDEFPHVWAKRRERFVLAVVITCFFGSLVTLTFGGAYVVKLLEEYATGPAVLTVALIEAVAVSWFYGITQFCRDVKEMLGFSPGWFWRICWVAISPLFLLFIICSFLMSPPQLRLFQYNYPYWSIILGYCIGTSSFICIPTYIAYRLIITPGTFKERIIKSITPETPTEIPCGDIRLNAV
Histamine H1 receptor (Homo sapiens), sequence (P35367 whole entry): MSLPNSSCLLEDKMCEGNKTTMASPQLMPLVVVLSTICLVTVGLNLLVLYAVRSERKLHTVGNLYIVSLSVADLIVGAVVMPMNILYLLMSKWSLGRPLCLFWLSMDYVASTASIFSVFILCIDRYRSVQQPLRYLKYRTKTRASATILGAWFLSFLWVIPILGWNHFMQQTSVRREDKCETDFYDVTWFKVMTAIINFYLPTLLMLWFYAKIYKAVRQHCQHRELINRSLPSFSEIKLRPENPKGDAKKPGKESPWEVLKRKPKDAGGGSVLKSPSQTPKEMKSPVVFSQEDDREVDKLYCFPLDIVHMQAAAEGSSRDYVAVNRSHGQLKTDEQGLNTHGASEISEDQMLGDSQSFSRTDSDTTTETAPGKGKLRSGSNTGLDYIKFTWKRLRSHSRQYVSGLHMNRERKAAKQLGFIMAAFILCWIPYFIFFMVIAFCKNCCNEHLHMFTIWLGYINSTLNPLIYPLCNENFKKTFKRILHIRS
Mu-type opioid receptor (Cavia porcellus, UniProt P97266), sequence (P97266 whole entry): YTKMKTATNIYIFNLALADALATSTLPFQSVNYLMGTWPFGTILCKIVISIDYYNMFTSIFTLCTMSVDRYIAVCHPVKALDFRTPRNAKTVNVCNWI
5-hydroxytryptamine receptor 2B (Homo sapiens), sequence (P41595 whole entry): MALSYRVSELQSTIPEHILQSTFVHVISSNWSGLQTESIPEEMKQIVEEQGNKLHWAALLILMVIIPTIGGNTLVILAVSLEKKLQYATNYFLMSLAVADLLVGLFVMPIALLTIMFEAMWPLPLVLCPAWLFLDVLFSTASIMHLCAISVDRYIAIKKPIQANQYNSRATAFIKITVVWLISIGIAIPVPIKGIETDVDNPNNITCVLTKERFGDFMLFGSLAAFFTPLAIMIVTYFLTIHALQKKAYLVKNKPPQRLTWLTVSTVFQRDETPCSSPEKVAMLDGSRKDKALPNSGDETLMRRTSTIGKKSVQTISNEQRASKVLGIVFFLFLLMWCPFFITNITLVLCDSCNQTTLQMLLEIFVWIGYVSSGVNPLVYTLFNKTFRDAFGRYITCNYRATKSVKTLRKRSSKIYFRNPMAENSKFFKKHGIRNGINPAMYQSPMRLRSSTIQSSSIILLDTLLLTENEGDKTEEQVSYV
Mu-type opioid receptor (Homo sapiens, UniProt P35372), sequence (P35372 whole entry): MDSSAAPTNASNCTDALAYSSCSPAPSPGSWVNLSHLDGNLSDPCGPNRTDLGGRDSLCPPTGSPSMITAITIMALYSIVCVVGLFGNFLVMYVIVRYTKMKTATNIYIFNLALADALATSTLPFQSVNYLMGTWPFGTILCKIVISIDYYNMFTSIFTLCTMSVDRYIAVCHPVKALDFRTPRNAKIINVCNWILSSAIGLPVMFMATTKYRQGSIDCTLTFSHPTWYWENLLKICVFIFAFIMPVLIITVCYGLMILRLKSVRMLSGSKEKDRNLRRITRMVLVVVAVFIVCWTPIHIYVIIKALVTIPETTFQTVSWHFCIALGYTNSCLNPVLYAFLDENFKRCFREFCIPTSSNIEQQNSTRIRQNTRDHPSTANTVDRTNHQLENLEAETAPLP
Sodium-dependent dopamine transporter (Homo sapiens), sequence (Q01959 whole entry): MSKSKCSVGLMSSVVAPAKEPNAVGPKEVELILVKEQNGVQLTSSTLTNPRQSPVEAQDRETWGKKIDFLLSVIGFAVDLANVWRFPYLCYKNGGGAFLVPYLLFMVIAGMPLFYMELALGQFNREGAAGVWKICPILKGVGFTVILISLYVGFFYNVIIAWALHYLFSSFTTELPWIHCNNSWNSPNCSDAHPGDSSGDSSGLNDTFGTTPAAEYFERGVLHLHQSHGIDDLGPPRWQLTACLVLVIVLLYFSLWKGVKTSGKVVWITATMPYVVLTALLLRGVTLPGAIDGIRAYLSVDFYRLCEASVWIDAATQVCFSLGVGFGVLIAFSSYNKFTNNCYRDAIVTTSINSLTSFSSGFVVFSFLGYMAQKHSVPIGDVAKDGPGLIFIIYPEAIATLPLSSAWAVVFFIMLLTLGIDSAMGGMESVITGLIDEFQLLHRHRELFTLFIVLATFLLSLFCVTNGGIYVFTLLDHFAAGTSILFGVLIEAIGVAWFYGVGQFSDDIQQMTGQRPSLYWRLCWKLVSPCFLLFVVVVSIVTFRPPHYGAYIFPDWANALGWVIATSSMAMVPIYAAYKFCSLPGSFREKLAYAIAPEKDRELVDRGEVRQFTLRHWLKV
Delta-type opioid receptor, sequence (P33533 whole entry): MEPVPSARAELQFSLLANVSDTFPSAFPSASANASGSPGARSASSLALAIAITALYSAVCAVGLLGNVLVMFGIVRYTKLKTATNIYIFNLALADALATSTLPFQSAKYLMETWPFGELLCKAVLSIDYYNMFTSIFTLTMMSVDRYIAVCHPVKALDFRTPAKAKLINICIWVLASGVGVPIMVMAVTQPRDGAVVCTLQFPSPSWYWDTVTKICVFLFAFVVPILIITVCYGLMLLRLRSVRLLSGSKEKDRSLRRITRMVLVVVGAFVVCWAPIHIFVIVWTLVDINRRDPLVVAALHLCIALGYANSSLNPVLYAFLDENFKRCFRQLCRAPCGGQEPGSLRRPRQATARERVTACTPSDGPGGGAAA

FCC[C@@H]1Cc2ccccc2C2(CCC(N3CCN(C4CCCCC4)CC3)CC2)O1 (some centres not stated)
inhibition [1]: < 50% | Activity (Mus musculus [2]): Active | inhibition [3]: < 50% | Ki [4]: > 1000 nM | inhibition [5]: < 50% | Activity (Mus musculus [6]): inactive | inhibition [7]: 62% | Ki [8]: 45 nM | inhibition [9]: < 50% | EC50 (Mu-type opioid receptor [10]): 1760 nM | inhibition [11]: < 50% | remaining at 1 h, 25 µM (in vitro): 71.8% | Ki [12]: 65 nM | inhibition [13]: < 50% | Activity (Mus musculus [14]): Active

CO[C@@H]1Cc2ccccc2C2(CCC(N3CCN(C4CCCCC4)CC3)CC2)O1 (some centres not stated)
Ki [8]: 62 nM | Ki [15]: 6.3 nM | Ratio Ki [16]: 10

CO[C@H]1Cc2ccccc2C2(CCC(NCc3ccccc3)CC2)O1 (some centres not stated)
Ki [15]: 158 nM

Cc1ccc(CNC2CCC3(CC2)O[C@@H](O)Cc2ccccc23)c(C)c1 (some centres not stated)
Ki [8]: 66 nM

CO[C@@H]1Cc2ccccc2C2(CCC(NC3CCc4ccccc4CC3)CC2)O1 (some centres not stated)
Ki [8]: 49 nM

Cc1ccc(CNC2CCC3(CC2)O[C@H](CCO)Cc2ccccc23)c(C)c1 (some centres not stated)
Ki [8]: 381 nM

FCC[C@H]1Cc2ccccc2C2(CCC(N3CCN(C4CCCCC4)CC3)CC2)O1 (some centres not stated)
Activity (Mus musculus [17]): inactive | Activity (Mus musculus [2]): Active | Ki (Mu-type opioid receptor [18]): 434 nM | Ki [19]: 647 nM | Ki [4]: > 1000 nM | Stability [20]: Stable | Ki [8]: 432 nM | Activity (Mus musculus [21]): Active | Ki [15]: 19 nM | Stability [22]: Stable | remaining at 1 h, 25 µM (in vitro): 69.5% | Ki [12]: 31 nM | Activity (Mus musculus [14]): inactive

CO[C@@H]1Cc2ccccc2C2(CCC(NCc3ccccc3)CC2)O1 (some centres not stated)
Ki [15]: 538 nM

CCOC(=O)C[C@H]1Cc2ccccc2C2(CCC(NCc3ccc(C)cc3C)CC2)O1 (some centres not stated)
Ki [8]: 159 nM | Ki [15]: 547 nM

FCC[C@H]1Cc2ccccc2C2(CCC(NC3CCc4ccccc4CC3)CC2)O1 (some centres not stated)
Ki [8]: 527 nM | Ki [15]: 198 nM

COc1cc2c(cc1OC)CN(C1CCC3(CC1)O[C@H](O)Cc1ccccc13)CC2 (some centres not stated)
Ki [8]: 99 nM | Ki [15]: 583 nM

CO[C@H]1Cc2ccccc2C2(CCC(N3CCN(C4CCCCC4)CC3)CC2)O1 (some centres not stated)
Ki [8]: 213 nM | Ki [15]: 4.4 nM | Ratio Ki [16]: 50

Fc1ccc(-n2cc(CCCCN3CCC4(CC3)OCc3ccccc34)c3ccccc32)cc1 [SIRAMESINE]
Ki [23]: 17 nM | Ki [15]: 17 nM

CCOC(=O)C[C@@H]1Cc2ccccc2C2(CCC(N3CCN(C4CCCCC4)CC3)CC2)O1 (some centres not stated)
Ki [8]: 355 nM

Cc1ccc(CNC2CCC3(CC2)O[C@@H](CCO)Cc2ccccc23)c(C)c1 (some centres not stated)
Ki [8]: 179 nM | Ki [15]: 548 nM

COc1cc2c(cc1OC)CN(C1CCC3(CC1)O[C@H](CCF)Cc1ccccc13)CC2 (some centres not stated)
Ki [15]: 807 nM

CCOC(=O)C[C@H]1Cc2ccccc2C2(CCC(N3CCc4cc(OC)c(OC)cc4C3)CC2)O1 (some centres not stated)
Ki [8]: 343 nM
